Key:
Assay type in all cases: in vivo, C57BL/6NTac mice
corticosterone = experiment: Serum stress hormone (corticosterone) ELISA in CRS model; conditions: CRS+BA group, 14 days
Procedure: In order to confirm the antidepressant efficacy of bornyl acetate on the animal model of stress depression, an animal model of depression induced by chronic restrained stress (CRS) was prepared. Specifically, the animal model, 8-week-old male C57BL/6NTac mice after birth (Narabiotechnology, Korea; weight 22-24 g) had been stabilized for 1 week. A 50 ml conical tube (SPL Life sciences, Pocheon, Korea) was punched to make a hole, thereby making a restraint frame. The mice were put in the frame and restrained for 2 hours every day for 14 days. After restraint, the mice were allowed to freely ingest water and food in the home cage. Bornyl acetate (25, 50 and 100 mg/kg) was orally administered 1 hour before inducing restrained stress every day. 14 days later, the mice were anesthetized, and the blood was collected. The blood was centrifuged at 5,000 rpm for 15 minutes to separate serum. In order to confirm the level of corticosterone, a stress hormone, in serum, an enzyme-linked immunosorbent assay (ELISA) kit (Enzo life sciences, Farmingdale, NY, USA) was used for analysis.

Iba-1 = experiment: Immunohistochemical staining for Iba-1 (microglia activation) in brain of CRS model; conditions: hippocampus and amygdala, CRS+BA group, 100 mg/kg oral
Procedure: In order to confirm the antidepressant efficacy of bornyl acetate on the animal model of stress depression, an animal model of depression induced by chronic restrained stress (CRS) was prepared. Specifically, the animal model, 8-week-old male C57BL/6NTac mice after birth (Narabiotechnology, Korea; weight 22-24 g) had been stabilized for 1 week. A 50 ml conical tube (SPL Life sciences, Pocheon, Korea) was punched to make a hole, thereby making a restraint frame. The mice were put in the frame and restrained for 2 hours every day for 14 days. After restraint, the mice were allowed to freely ingest water and food in the home cage. Bornyl acetate (100 mg/kg) was administered orally 1 hour before induction of restraint stress every day. 14 days later, the mice were anesthetized, and 4% paraformaldehyde was perfused into the heart. Then, the mice were fixed, and the brain was excised. The excised brain was immersed in 4% paraformaldehyde and fixed at 4° C. for one more day. It was then changed to 30% sucrose, and the brain was stored at 4° C. for 3 days or more to prevent freeze damage. The brain was cut into a thickness of 30 μm using a cryocut microtome to prepare the frozen sections. […]

c-Fos protein = experiment: Western blot of c-Fos protein in brain (hippocampus and amygdala) of CRS model; conditions: CRS+BA group
Procedure: In order to confirm the antidepressant efficacy of bornyl acetate on the animal model of stress depression, an animal model of depression induced by chronic restrained stress (CRS) was prepared. Specifically, the animal model, 8-week-old male C57BL/6NTac mice after birth (Narabiotechnology, Korea; weight 22-24 g) had been stabilized for 1 week. A 50 ml conical tube (SPL Life sciences, Pocheon, Korea) was punched to make a hole, thereby making a restraint frame. The mice were put in the frame and restrained for 2 hours every day for 14 days. After restraint, the mice were allowed to freely ingest water and food in the home cage. The hippocampus and amygdala of the brain were excised. They were added to 200 μl of a protein lysis buffer (10 mM Tris, 0.5 mM EDTA, 0.25 M sucrose), and proteins were isolated using a grinder. The isolated protein was quantified by the Bradford method (Bio-rad, USA) using bovine serum albumin (BSA, Sigma, USA), and then 25 μg of the protein was separated by 10% sodium dodecyl sulfate-polyacrylamide gel electrophoresis (SDS-PAGE) and transferred to polyvinylidene difluoride (PVDF) membrane (Gendepot, UK). PVDF membranes were blocked in 5% skimmed milk (BD, USA) for 1 hour. […] Identification and quantitative analysis of proteins were analyzed using an imaging device ChemiDoc XRS+ (Bio-Rad). […]

CC(=O)OC1CC2CCC1(C)C2(C)C (centres unmarked) [BA, bornyl acetate]
level of stress hormone (corticosterone) in serum (corticosterone; 50 mg/kg oral): 2869.8 pg/mL
level of stress hormone (corticosterone) in serum (corticosterone; 100 mg/kg oral): 2202.5 pg/mL
activation degree of microglia immunostained by Iba-1 (Iba-1): consistent
protein expression of c-Fos (CRS-induced increase) (c-Fos protein; amygdala): significantly inhibited
protein expression of c-Fos (CRS-induced increase) (c-Fos protein; hippocampus): significantly inhibited

— US12285399B2, “Composition comprising bornyl acetate or pharmaceutically acceptable salt thereof as active ingredient for prevention or treatment of stress-related disorder” (UNIVERSITY-INDUSTRY COOPERATION GROUP OF KYUNG HEE …, priority 2019, dated 2025)
